Laboratory results reported in patent US5668161A, “Substituted thiazoles for the treatment of inflammation” (G.D. Searle & Co., priority 1996, dated 1997).
Where two headings read alike, the source gives them in different places.

Key:
[1] = molecular target: T1, human COX-II (Homo sapiens, UniProt P35354); assay: COX II activity in vitro, human (PGE2 by ELISA)
T1 sequence (P35354 18-604): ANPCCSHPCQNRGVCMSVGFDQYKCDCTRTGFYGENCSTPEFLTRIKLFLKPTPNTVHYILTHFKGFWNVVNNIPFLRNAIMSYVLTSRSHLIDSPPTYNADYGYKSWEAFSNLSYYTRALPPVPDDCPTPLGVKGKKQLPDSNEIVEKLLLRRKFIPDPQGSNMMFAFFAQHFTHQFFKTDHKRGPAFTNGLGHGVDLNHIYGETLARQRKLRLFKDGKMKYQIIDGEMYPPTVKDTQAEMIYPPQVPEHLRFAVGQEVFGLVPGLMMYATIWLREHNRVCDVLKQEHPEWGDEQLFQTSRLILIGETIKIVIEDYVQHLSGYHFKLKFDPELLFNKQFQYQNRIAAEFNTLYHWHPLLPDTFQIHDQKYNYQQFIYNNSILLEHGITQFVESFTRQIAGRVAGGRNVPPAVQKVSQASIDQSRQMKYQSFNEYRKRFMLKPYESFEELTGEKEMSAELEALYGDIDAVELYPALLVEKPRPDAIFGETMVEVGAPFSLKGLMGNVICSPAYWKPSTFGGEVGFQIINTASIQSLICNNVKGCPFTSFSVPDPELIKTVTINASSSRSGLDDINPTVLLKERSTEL

[2] = molecular target: human COX-I (Homo sapiens, UniProt P23219); assay: COX I activity in vitro, human (PGE2 by ELISA)
human COX-I, sequence (P23219 24-599): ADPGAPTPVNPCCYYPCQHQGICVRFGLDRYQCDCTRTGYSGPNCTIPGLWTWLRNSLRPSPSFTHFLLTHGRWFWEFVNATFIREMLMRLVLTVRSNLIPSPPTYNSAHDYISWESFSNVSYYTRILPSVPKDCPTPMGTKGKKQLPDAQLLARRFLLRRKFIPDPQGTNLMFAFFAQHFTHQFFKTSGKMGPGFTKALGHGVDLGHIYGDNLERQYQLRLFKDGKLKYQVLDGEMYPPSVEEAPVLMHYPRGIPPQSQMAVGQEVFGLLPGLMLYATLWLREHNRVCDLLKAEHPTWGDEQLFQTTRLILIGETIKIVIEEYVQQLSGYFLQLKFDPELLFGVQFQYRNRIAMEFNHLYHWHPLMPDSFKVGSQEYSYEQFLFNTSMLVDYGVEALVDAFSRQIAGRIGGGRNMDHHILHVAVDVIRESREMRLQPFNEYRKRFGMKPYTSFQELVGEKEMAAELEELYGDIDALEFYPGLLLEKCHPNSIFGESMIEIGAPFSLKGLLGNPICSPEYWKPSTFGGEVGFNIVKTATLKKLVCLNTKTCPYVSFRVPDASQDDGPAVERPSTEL

[3] = molecular target: T2, murine COX-II (Mus musculus, UniProt Q05769); assay: biochemical
T2 sequence (Q05769 18-604): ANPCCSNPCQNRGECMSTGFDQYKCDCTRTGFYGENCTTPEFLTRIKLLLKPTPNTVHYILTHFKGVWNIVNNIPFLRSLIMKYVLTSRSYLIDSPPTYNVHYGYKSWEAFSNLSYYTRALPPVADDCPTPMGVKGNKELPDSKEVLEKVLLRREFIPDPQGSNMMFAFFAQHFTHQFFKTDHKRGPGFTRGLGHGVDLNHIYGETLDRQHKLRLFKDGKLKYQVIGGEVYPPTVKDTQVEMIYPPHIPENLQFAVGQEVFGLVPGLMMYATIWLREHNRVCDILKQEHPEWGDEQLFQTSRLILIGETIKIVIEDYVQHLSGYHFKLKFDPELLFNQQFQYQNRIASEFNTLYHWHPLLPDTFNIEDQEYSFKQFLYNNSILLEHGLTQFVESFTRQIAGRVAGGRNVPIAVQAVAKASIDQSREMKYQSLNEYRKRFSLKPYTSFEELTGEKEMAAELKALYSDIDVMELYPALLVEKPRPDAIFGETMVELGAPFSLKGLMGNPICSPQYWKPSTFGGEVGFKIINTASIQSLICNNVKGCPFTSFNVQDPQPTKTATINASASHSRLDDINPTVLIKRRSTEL

[4] = molecular target: T3, murine COX-I (Mus musculus, UniProt P22437); assay: COX I activity in vitro, murine (PGE2 by ELISA)
T3 sequence (P22437 27-602): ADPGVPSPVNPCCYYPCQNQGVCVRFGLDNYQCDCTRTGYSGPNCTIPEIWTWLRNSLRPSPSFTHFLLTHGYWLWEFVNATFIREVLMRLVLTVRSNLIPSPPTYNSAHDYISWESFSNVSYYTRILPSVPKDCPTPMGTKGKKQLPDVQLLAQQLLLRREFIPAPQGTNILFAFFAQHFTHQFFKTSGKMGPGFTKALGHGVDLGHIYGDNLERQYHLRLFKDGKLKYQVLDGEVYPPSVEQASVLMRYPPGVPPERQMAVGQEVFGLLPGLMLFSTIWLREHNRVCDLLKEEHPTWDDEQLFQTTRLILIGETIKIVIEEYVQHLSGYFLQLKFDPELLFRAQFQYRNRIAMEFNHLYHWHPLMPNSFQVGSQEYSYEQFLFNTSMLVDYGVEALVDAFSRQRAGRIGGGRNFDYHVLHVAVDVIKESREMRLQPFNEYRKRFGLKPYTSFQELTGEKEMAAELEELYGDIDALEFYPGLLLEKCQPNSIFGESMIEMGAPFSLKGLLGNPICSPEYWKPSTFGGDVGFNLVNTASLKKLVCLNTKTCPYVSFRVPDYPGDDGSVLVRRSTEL

[5] = tested on: carrageenan foot edema; assay: Rat Carrageenan Foot Pad Edema Test; type: in vivo, rat (Male Sprague-Dawley); details: oral, 3 hours after carrageenan, read-out: RAT PAW EDEMA % Inhibition; for inhibition at 20 mg/kg: @ 20 mg/kg body weight
Experimental: Male Sprague-Dawley rats were selected in each group so that the average body weight was as close as possible. Rats were fasted with free access to water for over sixteen hours prior to the test. […] One hour later a subplantar injection of 0.1 mL of 1% solution of carrageenan/sterile 0.9% saline was administered and the volume of the injected foot was measured with a displacement plethysmometer connected to a pressure transducer with a digital indicator. Three hours after the injection of the carrageenan, the volume of the foot was again measured. […] Rat Carrageenan-induced Analgesia Test

Structure (SMILES)	IC50 [1] [nM]	IC50 [2] [nM]	IC50 ([2]; read-out: COX I ID50, human (h), 10 μM arachidonic acid) [nM]	IC50 [3] [nM]	IC50 [4] [nM]	inhibition at 20 mg/kg [5] [%]	inhibition at 10 mg/kg [5] [%]
CS(=O)(=O)c1ccc(-c2sc(-c3ccccc3Cl)nc2-c2ccccc2)cc1 [Example 2, 2-(2-Chlorophenyl)-4-phenyl-5-(4-methylsulfonylphenyl)thiazole]	< 100	–	–	–	–	–	–
CS(=O)(=O)c1ccc(-c2sc(COc3ccccc3Cl)nc2-c2ccc(F)cc2)cc1 [Example 38, 2-((2-Chlorophenoxy)methyl)-4-(4-fluorophenyl)-5-(4-methylsulfonylphenyl)thiazole]	< 100	> 100000	–	–	–	–	–
Cc1ccc(-c2nc(-c3ccccc3Cl)sc2-c2ccc(S(C)(=O)=O)cc2)cc1 [Example 15, 2-(2-Chlorophenyl)-5-(4-methylsulfonylphenyl)-4-(4-methylphenyl)thiazole]	200	> 100000	–	–	–	–	–
NS(=O)(=O)c1ccc(-c2sc(-c3ccccc3Cl)nc2-c2ccc(F)cc2)cc1 [Example 32, 4-[4-(4-Fluorophenyl)-2-(2-chlorophenyl)-5-thiazolyl]benzensulfonamide]	< 100	700	–	–	–	–	–
CS(=O)(=O)c1ccc(-c2sc(-c3ccc(Br)s3)nc2-c2ccc(F)cc2)cc1 [Example 25, 2-(5'-Bromo-2'-thienyl)-4-(4-fluorophenyl)-5-(4-methylsulfonylphenyl)thiazole]	< 100	2600	–	–	–	–	–
CS(=O)(=O)c1ccc(-c2sc(-c3ccccc3Cl)nc2-c2ccc(F)cc2F)cc1 [Example 4, 4-(2,4-Difluorophenyl)-2-(2-chlorophenyl)-5-(4-methylsulfonylphenyl)thiazole]	< 100	–	70000	< 100	6200	–	–
CS(=O)(=O)c1ccc(-c2sc(-c3ccccc3Cl)nc2-c2cccc(F)c2)cc1 [Example 3, 2-(2-Chlorophenyl)-4-(3-fluorophenyl)-5-(4-methylsulfonylphenyl)thiazole]	< 100	–	–	–	–	–	–
CS(=O)(=O)c1ccc(-c2sc(COc3ccc(Cl)cc3)nc2-c2ccc(F)cc2)cc1 [Example 1, 2-((4-Chlorophenoxy)methyl)-4-(4-fluorophenyl)-5-(4-methylsulfonylphenyl)thiazole]	< 100	> 10000	–	–	> 100000	–	–
CS(=O)(=O)c1ccc(-c2sc(-c3ccc(F)c(Cl)c3)nc2-c2ccc(F)cc2)cc1 [Example 12, 2-(3-Chloro-4-fluorophenyl)-4-(4-fluorophenyl)-5-(4-methylsulfonylphenyl)thiazole]	< 100	> 10000	–	< 100	1600	53	–
CS(=O)(=O)c1ccc(-c2nc(C(F)(F)F)sc2-c2ccc(F)cc2)cc1 [Example 56, 5-(4-fluorophenyl)-4-(4-methylsulfonylphenyl)-2-trifluoromethylthiazole]	< 100	> 100000	–	< 100	> 100000	–	20
COc1ccc(-c2nc(-c3ccccc3Cl)sc2-c2ccc(S(C)(=O)=O)cc2)cc1 [Example 11, 2-(2-Chlorophenyl)-4-(4-methoxyphenyl)-5-(4-methylsulfonylphenyl)thiazole]	< 100	> 100000	–	–	–	–	–
CS(=O)(=O)c1ccc(-c2sc(-c3ccccc3Cl)nc2-c2ccc(Br)cc2)cc1 [Example 40, 4-(4-Bromophenyl)-2-(2-chlorophenyl)-5-[4-(methylsulfonyl)phenyl]thiazole]	< 100	> 100000	–	–	–	–	–
CS(=O)(=O)c1ccc(-c2sc(CCCc3ccc(Br)cc3)nc2-c2ccc(F)cc2)cc1 [Example 21]	< 100	–	–	< 100	> 10000	–	–
CS(=O)(=O)c1ccc(-c2sc(C(F)(F)F)nc2-c2ccc(F)cc2)cc1 [Example 23, 4-(4-Fluorophenyl)-5-(4-methylsulfonylphenyl)-2-trifluoromethylthiazole]	< 100	1100	–	< 100	700	39.5	–

Continued, in another order:

IC50 [1] [nM]	IC50 [2] [nM]	IC50 ([2]; read-out: COX I ID50, human (h), 10 μM arachidonic acid) [nM]	IC50 [3] [nM]	IC50 [4] [nM]	Structure (SMILES)	inhibition at 20 mg/kg [5] [%]	inhibition at 10 mg/kg [5] [%]
< 100	> 100000	–	–	–	CS(=O)(=O)c1ccc(-c2sc(-c3ccccc3Cl)nc2-c2ccccc2Cl)cc1 [Example 9, 2-(2-Chlorophenyl)-4-(2-chlorophenyl)-5-(4-methylsulfonylphenyl)thiazole]	–	–
–	< 100	–	–	–	NS(=O)(=O)c1ccc(-c2sc(COc3cc(Cl)cc(Cl)c3)nc2-c2ccc(F)cc2)cc1 [Example 34, 4-[2-((3,5-Dichlorophenoxy)methyl)-4-(4-fluorophenyl)-5-thiazolyl]benezenesulfonamide]	–	–
< 100	> 100000	–	–	–	Cc1ccccc1-c1nc(-c2ccccc2Cl)sc1-c1ccc(S(C)(=O)=O)cc1 [Example 5, 2-(2-Chlorophenyl)-4-(2-methylphenyl)-5-(4-methylsulfonylphenyl)thiazole]	–	–
600	> 100000	–	500	39800	CS(=O)(=O)c1ccc(-c2sc(C(Br)S(=O)(=O)c3cccs3)nc2-c2ccc(F)cc2)cc1 (stereo not shown) [Example 14]	–	–
< 100	> 100000	–	–	–	CS(=O)(=O)c1ccc(-c2sc(COc3cccc(Cl)c3)nc2-c2ccccc2F)cc1 [Example 36, 2-(3-Chlorophenoxy)methyl-4-(2-fluorophenyl)-5-[4-(methylsulfonyl)phenyl]thiazole]	–	–
< 100	> 100000	–	–	–	COc1ccc(OCc2nc(-c3ccc(F)cc3)c(-c3ccc(S(C)(=O)=O)cc3)s2)cc1 [Example 41, 4-(4-Fluorophenyl)-2-[(4-methoxyphenoxy)methyl]-5-[4-(methylsulfonyl)phenyl]thiazole]	4	–
< 100	> 100000	–	> 100	4900	CS(=O)(=O)c1ccc(-c2sc(-c3c(F)c(F)c(F)c(F)c3F)nc2-c2ccc(F)cc2)cc1 [Example 57]	–	2
< 100	> 100000	–	–	–	CS(=O)(=O)c1ccc(-c2sc(-c3ccccc3Cl)nc2-c2ccc(Cl)cc2)cc1 [Example 10, 2-(2-Chlorophenyl)-4-(4-chlorophenyl)-5-(4-methylsulfonylphenyl)thiazole]	14	–
–	–	–	300	> 10000	Cc1nc(-c2nc(-c3ccc(F)cc3)c(-c3ccc(S(C)(=O)=O)cc3)s2)cs1 [Example 39, 4-(4-Fluorophenyl)-5-[4-(methylsulfonyl)phenyl]-2-(2-methyl-4-thiazolyl)thiazole]	19	–
